PMC7450057, “Enhancing intracellular accumulation and target engagement of PROTACs with reversible covalent chemistry” (Nature Communications, 2020)
pIC50: −log10 of the molar value. Values joined by “and” are separate entries in the source; they are usually repeats but may differ in a detail not shown here. Equal entries are not always repeated.

Columns and labels:
BTK = BTK (Homo sapiens, UniProt Q06187); assay: In vitro BTK kinase assay (PhosphoSens); type: biochemical; parameters: purchased SignalChem B10-10H-10
BTK, sequence (Q06187 whole entry): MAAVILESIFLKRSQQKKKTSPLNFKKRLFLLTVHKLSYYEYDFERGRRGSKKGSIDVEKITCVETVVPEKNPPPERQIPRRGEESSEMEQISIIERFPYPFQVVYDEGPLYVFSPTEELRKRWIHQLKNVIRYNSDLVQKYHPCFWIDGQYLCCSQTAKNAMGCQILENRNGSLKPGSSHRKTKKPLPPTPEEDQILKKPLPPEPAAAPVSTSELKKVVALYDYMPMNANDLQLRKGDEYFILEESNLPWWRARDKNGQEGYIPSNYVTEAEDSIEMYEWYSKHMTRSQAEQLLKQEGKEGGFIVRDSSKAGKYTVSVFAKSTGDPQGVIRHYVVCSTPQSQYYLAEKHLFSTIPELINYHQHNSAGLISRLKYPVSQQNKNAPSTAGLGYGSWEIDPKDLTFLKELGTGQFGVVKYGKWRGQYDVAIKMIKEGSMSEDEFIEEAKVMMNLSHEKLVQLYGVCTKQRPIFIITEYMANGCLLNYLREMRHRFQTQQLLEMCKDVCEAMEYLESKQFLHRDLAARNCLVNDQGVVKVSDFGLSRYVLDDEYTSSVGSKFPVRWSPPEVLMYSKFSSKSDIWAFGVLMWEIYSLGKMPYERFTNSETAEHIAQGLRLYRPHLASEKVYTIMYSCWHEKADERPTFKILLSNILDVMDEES
Experimental: BTK kinase activity inhibition IC50 was measured by PhosphoSens® Kinase Assay Kit (Assay Quant Technologies Inc., Cat.# CSKS-AQT0101K). […] Active recombinant BTK was purchased from SignalChem (Cat.# B10-10H-10). All the drugs (3 warhead control and 4 PROTACs) were dissolved in DMSO (10 mM). […] To calculate the IC50, subtract the background fluorescence determined with the “no kinase” control for each time point from the total signal to obtain corrected Relative Fluorescence Units (RFU) values. Plot the corrected RFU vs. Time for each inhibitor concentration and determine the initial reaction rates (slope of the linear portion) for each progress curve for each inhibitor concentration. Then plot velocity (RFU corrected/minute) vs [inhibitor] and determine the IC50 using a 4-parameter logistic fit.

Rec-1 = assay: IC50 in MCL cell lines (Supplementary Table 2), Rec-1; conditions: for Cell Viability (%): Rec-1 cells, replicate wells

## CN1C(=O)CCC(N2C(=O)c3cccc(NCC(=O)NCCCN(C)C(C)(C)C=C(C#N)C(=O)N4CCCC(n5nc(-c6ccc(Oc7ccccc7)cc6)c6c(N)ncnc65)C4)c3C2=O)C1=O (stereo not drawn) [RC-1-Me]
BTK; AssayQuant BTK assay kit, 2.5 nM BTK, 1 mM ATP, duplicates, read-out: BTK inhibition IC50
  pIC50: 8.17
BTK; Supplementary Figure 5, drug concentration 2.56 pM, replicates, read-out: Inhibition(%)
  activity at 2.56 pM: 108%
BTK; Supplementary Figure 5, drug concentration 12.8 pM, replicates, read-out: Inhibition(%)
  activity at 12.8 pM: 101%
BTK; Supplementary Figure 5, drug concentration 64 pM, replicates, read-out: Inhibition(%)
  activity at 64 pM: 109%
BTK; Supplementary Figure 5, drug concentration 320 pM, replicates, read-out: Inhibition(%)
  activity at 0.00032 µM: 106%
BTK; Supplementary Figure 5, drug concentration 1600 pM, replicates, read-out: Inhibition(%)
  activity at 0.0016 µM: 88.3%
BTK; Supplementary Figure 5, drug concentration 8000 pM, replicates, read-out: Inhibition(%)
  activity at 0.008 µM: 48.8%
BTK; Supplementary Figure 5, drug concentration 40000 pM, replicates, read-out: Inhibition(%)
  activity at 0.04 µM: 10.5%
BTK; Supplementary Figure 5, drug concentration 200000 pM, replicates, read-out: Inhibition(%)
  activity at 0.2 µM: 3.98%
BTK; Supplementary Figure 5, drug concentration 1000000 pM, replicates, read-out: Inhibition(%)
  activity at 1 µM: 1.27%
Rec-1; Rec-1, triplicates
  pIC50: < 5.30
Rec-1; 1.25E-06 M
  Cell Viability (%): 88.9713% and 84.187% and 87.0708%
Rec-1; 1.56E-07 M
  Cell Viability (%): 102.885% and 100.999% and 103.498%
Rec-1; 2.50E-06 M
  Cell Viability (%): 85.2061% and 81.3451% and 80.2365%
Rec-1; 3.13E-07 M
  Cell Viability (%): 100.04% and 97.7301% and 97.0129%
Rec-1; 5.00E-06 M
  Cell Viability (%): 70.5812% and 67.1387% and 67.0221%
Rec-1; 6.25E-07 M
  Cell Viability (%): 91.8342% and 92.6769% and 91.2574%
Rec-1; 7.81E-08 M
  Cell Viability (%): 100.946% and 100.662% and 102.733%
